Data set [1] has as its system human apolipoprotein(a) mRNA. Briefly: Apolipoprotein(a) mRNA expression in primary human hepatocytes, real-time PCR. As to conditions: human primary hepatocytes; 5, 10, 50 or 150 nM, 24 hours. Type of data set: cell-based. (In general: Real-time PCR tracks product formation cycle by cycle.)
The next data set concerns apolipoprotein B protein. Briefly: Apolipoprotein B protein secreted from primary Cynomolgous monkey hepatocytes, ELISA. As to conditions: primary Cynomolgous hepatocytes; 150 and 300 nM. Type of data set: cell-based. The procedure, abridged: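 Primary cynomolgus hepatocytes treated with oligonucleotide at 150 and 300 nM, or 50 and 150 nM for some compounds; secreted apoB protein quantified by apoB-specific ELISA. Values are means of 3 experiments.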
(In general: ELISA stands for enzyme-linked immunosorbent assay.)

Data set [2] concerns Cynomolgous monkey apolipoprotein B mRNA. Briefly: Apolipoprotein B mRNA in primary Cynomolgous monkey hepatocytes, real-time PCR. Type of data set: cell-based. To be noted: cynomolgous monkey primary hepatocytes; 10, 50, 150 or 300 nM. A digest of the protocol: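 Primary cynomolgus hepatocytes treated with antisense oligonucleotides at 10, 50, 150 or 300 nM (some sets 10–150 nM) for 24 or 48 h, depending on the set. mRNA quantified by real-time PCR using human apoB and GAPDH primers/probes. Values are percent inhibition normalized to untreated cells, averaged over 2–6 experiments.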

A short description of data set [3]: Time course at two doses in female C57BL/6 mice (Example 49): AST and ALT levels. To be noted: for AST and ALT levels over saline treated animals: after 4 weeks. Type of data set: in vivo, mouse. As for the experimental part: Female C57BL/6 mice were divided into two groups—one group receiving oligonucleotide treatment and control animals receiving saline treatment. After overnight fasting, mice were dosed intraperitoneally twice a week with saline or 25 mg/kg or 50 mg/kg of ISIS 281625 (SEQ ID NO: 224), ISIS 301012 (SEQ ID NO: 247), or ISIS 301027 (SEQ ID NO: 262). After 2 weeks, a blood sample was taken from the tail of the mice and evaluated for liver enzyme. After 4 weeks, and study termination, animals were sacrificed and evaluated for liver enzyme levels.

As for “ISIS 301012: SEQ ID NO: 247, antisense oligonucleotide targeted to human apolipoprotein B (antisense GCCTCAGTCTGCTTCGCACC; chemistry not given here)”, the “expression of apolipoprotein(a) mRNA” value in data set [1] is listed as “did not inhibit”. Also, in the data set with apolipoprotein B protein, the “secretion of apolipoprotein B protein (ELISA)” value is “decrease”. In data set [2], the “inhibition of apolipoprotein B mRNA expression” value is “in a dose- and time-dependent manner”. Further, in data set [3] (25 or 50 mg/kg (either dose) i.p. twice a week, after 2 weeks), the “AST and ALT levels” value was “remained close to those of saline”. The figures for the “AST and ALT levels over saline treated animals” value in data set [3] (higher dose (50 mg/kg)) and in data set [3] (lower dose (25 mg/kg)) were “large increase” and “moderate increase”, respectively.

(Values after patent US7803930B2, “Antisense modulation of apolipoprotein B-expression” (Isis Pharmaceuticals, Inc., priority 2002, dated 2010).)
